Data on 2 molecules can be found in patent US20260354380A1, “PYRAZOLO PESTICIDAL COMPOUNDS” (BASF SE, priority 2022, published 2026).

Common to all, as to format: in vivo
The test system of one data set is Aedes aegypti. In words: whole plant or invertebrate. To be noted: 800 ppm; larvae; 2 days. In outline: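 Freshly hatched larvae (5-15 per well) were held in tap water, and compounds formulated in 25% DMSO/water were sprayed onto diet at several concentrations in duplicate. Larval mortality was scored visually after 2 days at 28±1 °C, 80±5% RH.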
In another data set the test system is Dichromothrips corbetti. Put plainly: Action on Orchid Thrips (Dichromothrips corbetti). To be noted: 300 ppm; adults; 72 hours after treatment. The protocol: Example B2: Action on Orchid Thrips (Dichromothrips corbetti)
Dichromothrips corbetti adults used for bioassay were obtained from a colony maintained continuously under laboratory conditions. For testing purposes, the test compound is diluted in a 1:1 mixture of acetone: water (vol: vol), plus Kinetic® HV at a rate of 0.01% v/v.
Thrips potency of each compound was evaluated by using a floral-immersion technique. All petals of individual, intact orchid flowers were dipped into treatment solution and allowed to dryin Petri dishes. Treated petals were placed into individual re-sealable plastic along with about 20 adult thrips. All test arenas were held under continuous light and a temperature of about 28 °C for duration of the assay. After 3 days, the numbers of live thrips were counted on each petal. The percent mortality was recorded 72 hours after treatment.

A further data set has as its system Anthonomus grandis. In words: Action on Boll Weevil (Anthonomus grandis). Conditions: 800 ppm; egg and larval mortality; 5 days. In short, it runs like this: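 Compounds in 75:25 water:DMSO sprayed at several concentrations onto insect diet in microtiter wells holding 5-10 eggs, two replicates. Plates kept 5 days at about 25±1 °C and 75±5% RH; egg and larval mortality scored visually.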

A further data set deals with Bemisia argentifolii. In words: Action on Silverleaf Whitefly (Bemisia argentifolii) (Adults). To be noted: 300 ppm, 3 days after treatment. The protocol: Example B4: Action on Silverleaf Whitefly (Bemisia argentifolii) (Adults)
The active compounds were formulated by a Tecan liquid handler in 100% cyclohexanone as a 10,000 ppm solution supplied in tubes. The 10,000 ppm solution was serially diluted in 100% cyclohexanone to make interim solutions. These served as stock solutions for which final dilutions were made by the Tecan in 50% acetone: 50% water (v/v) into 5 or 10 ml glass vials. A nonionic surfactant (Kinetic®) was included in the solution at a volume of 0.01% (v/v). The vials were then inserted into an automated electrostatic sprayer equipped with an atomizing nozzle for application to plants/insects.
Cotton plants at the cotyledon stage (one plant per pot) were sprayed by an automated electrostatic plant sprayer equipped with an atomizing spray nozzle. The plants were dried in the sprayer fume hood and then removed from the sprayer. Each pot was placed into a plastic cup and about 10 to 12 whitefly adults (approximately 3-5 days old) were introduced. The insects were collected using an aspirator and a nontoxic Tygon® tubing connected to a barrier pipette tip. The tip, containing the collected insects, was then gently inserted into the soil containing the treated plant, allowing insects to crawl out of the tip to reach the foliage for feeding. […] Mortality was assessed 3 days after treatment, compared to untreated control plants.

The subject of a further data set is Heliothis virescens. In words: Action on Tobacco Budworm (Heliothis virescens). To be noted: 800 ppm; egg and larval mortality; 5 days. In outline: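 Compounds in 25% DMSO/75% water were sprayed at several concentrations onto insect diet in microtiter wells holding 15-25 eggs, two replications. After 5 days at about 28±1 °C and 80±5% RH, egg and larval mortality was scored visually.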

Data set [1] has as its system Plutella xylostella. Put plainly: Action on Diamond Back Moth (Plutella xylostella), cabbage leaf dip, 3rd instar larvae. To be noted: 300 ppm; 3rd instar larvae; 72 hours after treatment. In short, it runs like this: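 Cabbage leaves dipped in compound solution (1:1 water:acetone, 0.01% v/v surfactant), air-dried, then infested with ten 3rd-instar larvae in petri dishes on moist filter paper. Mortality scored at 72 h after treatment; feeding damage rated on a 0–100% scale.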

For the next data set, the system named is Spodoptera eridania. Put plainly: Action on Southern Armyworm (Spodoptera eridania), 2nd Instar Larvae. To be noted: 300 ppm; 2nd instar larvae; 4 days after treatment. In short, it runs like this: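 Compounds in 50% acetone/water with 0.01% nonionic surfactant sprayed electrostatically onto Lima bean plants at 1st true leaf stage. After drying, 10–11 2nd-instar larvae bagged with each pot, kept about 25 °C, 20–40% RH. Mortality and reduced feeding scored at 4 days vs untreated plants.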

Data set [2] relates to Plutella xylostella. In words: Action on Diamond Back Moth (Plutella xylostella), microtiter plates, insect diet, eggs. Conditions: 800 ppm; egg and larval mortality; 5 days. In short, it runs like this:
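Diet in 96-well plates with 15–25 P. xylostella eggs, sprayed with compound formulated in 75% water/25% DMSO at several concentrations, two replicates; mixtures combined in equal volumes. Incubated 5 days at 28±1 °C, 80±5% RH, then egg and larval mortality scored visually.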

`Cc1ccc(C(C)C)c(N2C(=O)CS/C2=N\C(=O)Nc2ccc(-n3cc(NC(=O)c4ccc(OC(F)(F)F)cc4)c(C)n3)cc2F)c1` [Example C-6]: the “mortality in comparison with untreated controls” value (shortened to “mortality in comparison”) was “at least 50%” in the data set on Aedes aegypti; “at least 75%” in the data set on Dichromothrips corbetti; “at least 75%” in the data set with Anthonomus grandis; “at least 75%” in the data set with Bemisia argentifolii; “at least 75%” in the data set with Heliothis virescens; “at least 75%” with Plutella xylostella [1]. The “mortality in comparison” value with Spodoptera eridania is “at least 75%”.

On to `Cc1ccc(C(C)C)c(NC(=S)NC(=O)Nc2ccc(-n3nc(C)c(NC(=O)c4ccc(OC(F)(F)F)cc4)c3C)cc2Cl)c1` [Example C-125], for which the “mortality in comparison” value was “at least 50%” in the data set on Aedes aegypti; “at least 75%” with Dichromothrips corbetti; “at least 75%” in the data set with Anthonomus grandis; “at least 75%” in the data set with Heliothis virescens; “at least 75%” with Spodoptera eridania; “at least 75%” with Plutella xylostella [2].
